Data taken from patent US20150143553A1, “Methods And Compositions Comprising A Drosophila Model Of Amyotrophic Lateral Sclerosis” (priority 2013, published 2015).
Structures can show the parent of a compound that is named as a salt.

System: Drosophila larvae expressing wild-type TDP-43 in motor neurons
Assay: Drug screen: rescue of lethality caused by wild-type TDP-43 expression in motor neurons (D42 Gal4)
Format: in vivo
Conditions: Wild-type TDP-43; 25 μM; out of 15-20 pupae
From the text: […] Larvae expressing TDP-43 (wild type or mutant, as shown) are raised on drug containing food.
[…] Larvae expressing TDP-43 (wt or mutant) were raised on drug containing food.
Using a Drosophila model of ALS based on TDP-43 that recapitulates several aspects of the disease pathophysiology (33, 35), a drug screen aimed at identifying FDA approved compounds with neuroprotective potential in vivo were designed (FIG. 37A). […] This phenotype was used to screen for drug candidates with therapeutic potential as determined by their ability to rescue pupal lethality and produce viable adults with extended wings (FIG. 37A). […]
UAS TDP-43 males were crossed with D42-Gal4 female virgins on fly food containing either DMSO or pioglitazone. For DMSO controls, the same volume of DMSO as the corresponding drug concentration was added. Bromophenol blue was added to a final concentration of approximately 0.02% to ensure homogeneity. Crosses were made on drug food with 3 female virgins and 2 males in each vial, and were maintained at 25° C. unless noted. The parents were discarded after 5-7 days then the vials were screened for adult progeny with straight wings from day 14 to day 25. All adults were screened for TDP-43 expression by visualizing the YFP tag. Total number of pupae was counted on day 25. Percent survival was calculated using the formula (total number of straight-winged adults/total number of pupae)×100. All experiments were performed in triplicate.

`CN(C)C(=N)N=C(N)N` [Metformin] was tested, and the “Rescue Effect (out of 15-20 pupae) (drug conc.)” value was 2 adults.

Same assay, conditions: transgene WT2; 30 μM in fly food

Compared with `Cn1cc[nH]c1=S` [Methimazole], `CNC(=C[N+](=O)[O-])NCCSCc1csc(CN(C)C)n1` [Nizatidine] is higher in “Preliminary rescue result: adults with normal wings” value (shortened to “Preliminary rescue result: adults”): 1 Adult Normal Wings Adults for the first, 2 Adult Normal Wings Adults for the second.

`O=C(O)Cc1ccc(-c2ccccc2)cc1` [Felbinac] and `CC[N+](C)(CC)CCOC(=O)C1c2ccccc2Oc2ccccc21` [Methantheline Bromide] are the same in “Preliminary rescue result: adults” value: 1 Adult Normal Wings Adults for the first, 1 Adult Normal Wings Adults for the second.

Compared with `CCC(=O)OCC(=O)[C@@]1(OC(=O)CC)[C@H](C)C[C@H]2[C@H]3[C@H]([C@@H](O)C[C@@]21C)[C@@]1(C)C=CC(=O)C=C1C[C@H]3Cl` [Alclometasone Dipropionate], `C=CCOc1ccccc1OCC(O)CNC(C)C` (stereo not shown) [Oxprenolol Hcl] is lower in “Preliminary rescue result: adults” value: 2 Adult Normal Wings Adults for the first, 1 Adult Normal Wings Adults for the second.

Compared with Carbinoxamine Maleate Salt, `NC1CCN(c2c(F)cc3c(=O)c(C(=O)O)cn(C4CC4)c3c2Cl)C1` (stereo not shown) [Clinafloxacin] is higher in “Preliminary rescue result: adults” value: 1 Adult Normal Wings Adults for the first, 4 Adult Normal Wings Adults for the second.

`COc1cc2nc(N3CCN(C(=O)C4COc5ccccc5O4)CC3)nc(N)c2cc1OC` (stereo not shown) [Doxazosin Mesylate] and `CC(C)c1c(C(=O)Nc2ccccc2)c(-c2ccccc2)c(-c2ccc(F)cc2)n1CC[C@@H](O)C[C@@H](O)CC(=O)O` [Atorvastatin] are the same in “Preliminary rescue result: adults” value: 1 Adult Normal Wings Adults for the first, 1 Adult Normal Wings Adults for the second.

First: CCCCC(=O)O[C@H]1CC[C@H]2[C@@H]3CCc4cc(O)ccc4[C@H]3CC[C@]12C [Estradiol Valerate]
Second: C[C@H](O)C(=O)Nc1c(I)c(C(=O)NC(CO)CO)c(I)c(C(=O)NC(CO)CO)c1I [Iopamidol]
The “Preliminary rescue result: adults” value of the first is lower: 1 Adult Normal Wings Adults for the first, 3 Adult Normal Wings Adults for the second.

`C[C@]12CC[C@H]3[C@@H](CCC4=CC(=O)CC[C@@]43C)[C@@H]1CC[C@@H]2C(=O)CO` [Deoxycorticosterone] and `CC(C)(C(=O)O)c1ccc(C(O)CCCN2CCC(C(O)(c3ccccc3)c3ccccc3)CC2)cc1` (stereo not shown) [Fexofenadine Hcl] are the same in “Preliminary rescue result: adults” value: 1 Adult Normal Wings Adults for the first, 1 Adult Normal Wings Adults for the second.

Going from `CC(C)Cn1cnc2c(N)nc3ccccc3c21` [Imiquimod] to `COc1cc2nc(N3CCN(C(=O)C4CCCO4)CC3)nc(N)c2cc1OC.Cl` (stereo not shown) [Terazosin HC1], the “Preliminary rescue result: adults” value rises from 2 Adult Normal Wings Adults to 3 Adult Normal Wings Adults.

`Oc1c(Cl)cc(Cl)c(Cl)c1Cc1c(O)c(Cl)cc(Cl)c1Cl` [Hexachlorophene] and `CCCNC(C)(C)COC(=O)c1ccccc1` [Meprylcaine HCl] are the same in “Preliminary rescue result: adults” value: 1 Adult Normal Wings Adults for the first, 1 Adult Normal Wings Adults for the second.

Compared with `CCOC(=O)O[C@]1(C(=O)COC(=O)CC)CC[C@H]2[C@@H]3CCC4=CC(=O)C=C[C@]4(C)[C@H]3[C@@H](O)C[C@@]21C` [Prednicarbate], `CCC(=O)O[C@]1(C(=O)SCF)[C@H](C)C[C@H]2[C@@H]3C[C@H](F)C4=CC(=O)C=C[C@]4(C)[C@@]3(F)[C@@H](O)C[C@@]21C` [Fluticasone Propionate] is lower in “Preliminary rescue result: adults” value: 2 Adult Normal Wings Adults for the first, 1 Adult Normal Wings Adults for the second.

Compared with `CN(C)CCCO[C@@H]1[C@H]2OC(C)(C)O[C@H]2O[C@@H]1[C@H](O)CO` [Amiprilose HCl], `COc1cc([C@@H]2c3cc4c(cc3[C@H](O)[C@H]3COC(=O)[C@H]23)OCO4)cc(OC)c1OC` [Podophyllotoxin] is higher in “Preliminary rescue result: adults” value: 1 Adult Normal Wings Adults for the first, 8 Adult Normal Wings Adults for the second.

`COc1ccc(C2CNC(=O)C2)cc1OC1CCCC1` (stereo not shown) [Rolipram] and `OC(CCN1CCCC1)(c1ccccc1)C1CCCCC1` (stereo not shown) [Procyclidine HCL] are the same in “Preliminary rescue result: adults” value: 1 Adult Normal Wings Adults for the first, 1 Adult Normal Wings Adults for the second.

First: Cc1nccn1CC1CCc2c(c3ccccc3n2C)C1=O (stereo not shown) [Ondansetron Hcl]
Second: COc1ccc2cc([C@@H](C)C(=O)[O-])ccc2c1.[Na+] [R-Naproxen Na Salt]
The “Preliminary rescue result: adults” value of the first is lower: 1 Adult Normal Wings Adults for the first, 2 Adult Normal Wings Adults for the second.

First: CC(C)(C)NC[C@H](O)COc1ccccc1C1CCCC1 [Penbutolol Sulfate]
Second: CCC(=O)O[C@@](Cc1ccccc1)(c1ccccc1)[C@@H](C)CN(C)C [Levopropoxyphene Napsylate]
The “Preliminary rescue result: adults” value of the first is lower: 1 Adult Normal Wings Adults for the first, 2 Adult Normal Wings Adults for the second.

With `Clc1ccc(C(OCCN2CCCCC2)c2ccccc2)cc1` (stereo not shown) [Cloperastine HCl] the “Preliminary rescue result: adults” value was 1 Adult Normal Wings Adults.

`CCC1(c2ccccc2)NC(=O)N(C)C1=O` (stereo not shown) [Mephenytoin] was tested, and the “Preliminary rescue result: adults” value was 2/1.
In the case of `Cn1nnnc1SCC1=C(C(=O)[O-])N2C(=O)[C@@H](NC(=O)[C@H](O)c3ccccc3)[C@H]2SC1.[Na+]` [Cefamandole Na Salt], the “Preliminary rescue result: adults” value is reported as 2/3 Adult Normal Wing.

`CCNCC(O)c1cccc(O)c1.Cl` (stereo not shown) [Etilifrine Hydrochloride] and `Cc1nc2n(c(=O)c1CCN1CCC(c3noc4cc(F)ccc34)CC1)CCCC2` [Risperidone] are the same in “Preliminary rescue result: adults” value: 1 Adult Normal Wing Adults for the first, 1 Adult Normal Wing Adults for the second.

`CCCCC(CC)CNC(=N)NC(=N)NCCCCCCNC(=N)NC(=N)NCC(CC)CCCC` (stereo not shown) [Alexidine Dihydrochloride] and `CC(CNC1CCCCC1)OC(=O)c1ccccc1` (stereo not shown) [Hexylcaine HCl] are the same in “Preliminary rescue result: adults” value: 6 Adults Normal Wings for the first, 6 Adults Normal Wings for the second.

Same assay, conditions: transgene WT2; 50 μM in fly food

Compared with `CN(C)CC/C=C1/c2ccccc2Sc2ccc(Cl)cc21` [Chlorprothixene], `CC(C)(C)NCC(O)COc1cccc2c1CCC(=O)N2` (stereo not shown) [Carteolol HCl] is lower in “Preliminary rescue result: adults” value: 3 Adults Normal Wings for the first, 2 Adults Normal Wings for the second.

`C[C@]12CCC(=O)C=C1CC[C@H]1[C@@H]3CC[C@](O)(C(=O)CO)[C@@]3(C)C[C@H](O)[C@@]12F` [Fludrocortisone] and `CCN1CCC[C@H]1CNC(=O)c1c(O)c(Cl)cc(Cl)c1OC` [Raclopride] are the same in “Preliminary rescue result: adults” value: 2 Adults Normal Wings for the first, 2 Adults Normal Wings for the second.

`CCCCCCCCNC(C)C(O)c1ccc(SC(C)C)cc1` (stereo not shown) [Suloctidil] was tested, and the “Preliminary rescue result: adults” value was 6 Adults Normal Wings.

First: CCCCOc1cc(C(=O)NCCN(CC)CC)c2ccccc2n1 [Dibucaine]
Second: CCn1cc(C(=O)O)c(=O)c2cc(F)c(N3CCNCC3)nc21 [Enoxacin]
The “Preliminary rescue result: adults” value of the first is lower: 1 Adult Normal Wings Adults for the first, 3 Adult Normal Wings Adults for the second.

`CCCCOc1cc(C(=O)OCCN(CC)CC)ccc1N` [Benoxinate Hydrochloride] and `Cc1onc(-c2c(Cl)cccc2Cl)c1C(=O)N[C@@H]1C(=O)N2[C@@H]1SC(C)(C)[C@@H]2C(=O)O` [Dicloxacillin Sodium Salt] are the same in “Preliminary rescue result: adults” value: 1 Adult Normal Wings Adults for the first, 1 Adult Normal Wings Adults for the second.

`Cc1cc(-c2ccccc2)nnc1NCCN1CCOCC1` [Minaprine Dihydrochloride] and Thioproperazine Dimesylate are the same in “Preliminary rescue result: adults” value: 1 Adult Normal Wings Adults for the first, 1 Adult Normal Wings Adults for the second.

`COc1cc(NC(C)CCCN)c2ncccc2c1` (stereo not shown) [Primaquine Diphosphate] and `CN[C@@H]1[C@@H](O)[C@@H](O[C@@H]2[C@@H](O)[C@H](O[C@H]3OC(CN)=CC[C@H]3N)[C@@H](N)C[C@H]2N)OC[C@]1(C)O` [Sisomicin Sulfate] are the same in “Preliminary rescue result: adults” value: 1 Adult Normal Wings Adults for the first, 1 Adult Normal Wings Adults for the second.

`Cc1ccc(-c2cc(C(F)(F)F)nn2-c2ccc(S(N)(=O)=O)cc2)cc1` [Celecoxib] and `CN1CCN(C(c2ccccc2)c2ccccc2)CC1` [Cyclizine Hcl] are the same in “Preliminary rescue result: adults” value: 1 Adult Normal Wings Adults for the first, 1 Adult Normal Wings Adults for the second.

`C#CCN(C)Cc1ccccc1` [Pargyline Hydrochloride] and `CC(C)NCC(O)COc1ccc(COCCOC(C)C)cc1.CC(C)NCC(O)COc1ccc(COCCOC(C)C)cc1.O=C(O)/C=C/C(=O)O` (stereo not shown) [Beoprolol Fumarate] are the same in “Preliminary rescue result: adults” value: 1 Adult Normal Wings Adults for the first, 1 Adult Normal Wings Adults for the second.

`OC(Cn1cncn1)(Cn1cncn1)c1ccc(F)cc1F` [Fluconazole] and `CCN(CC)C(=O)c1ccc(O)c(OC)c1` [Ethamivan] are the same in “Preliminary rescue result: adults” value: 1 Adult Normal Wings Adults for the first, 1 Adult Normal Wings Adults for the second.

With `Cc1ccsc1/C=C/C1=NCCCN1C` [Morantel Tartrate] the “Preliminary rescue result: adults” value was 1 Adult Normal Wings Adults.

In the case of `CN(C)C(=O)Oc1cccc([N+](C)(C)C)c1` [Neostigmine Bromide], the “Preliminary rescue result: adults” value is reported as 5 Adults Straight Wings.

`CC(N)C(O)c1ccccc1` (stereo not shown) [Phenylpropanolamine Hydrochloride] was tested, and the “Preliminary rescue result: adults” value was 1 Adult: 1 Normal Wing Adults.
